Where a SMILES comes first, the peptide text is derived from it. Bridges are numbered along the chain shown (N, C = ends). [ ]: non-standard residue; d: D form. Mpa = O=C(O)CCS
Columns and labels:
F-VIII and PA = settings: mammals; literature; cited from earlier work
Factor VIII [1] = test: Factor VIII classical clotting assay (F-VIII(C)) on blood of dogs after intravenous injection; type: in vivo; settings: dog, i.v., pre-injection blood = 100%; for F-VIII 30' (c): 30 minutes; for F-VIII 60' (c): 60 minutes; for F-VIII 120' (c): 120 minutes
Method: (§1) K., Mulder, J. L., Kidney Internat. 8:292,1975. The increase in Factor VIII after administration were analyzed in male canine citrated plasma. The Factor VIII were estimated by both the classical clotting assay (F-VIII(C)) and by radioimmunoassay (F-VIII(RIA)), both described in […]., Cort, J. H., Cash, J. D., Brit. H. Haematol. 41:437, 1979. […] The intravenous or subcutaneous doses would be in the range of 0.02 to 1.0 μg/kg. The intranasal dose range would be ten times the former dose. […] The compounds from Examples 4-8 were tested by intravenously injecting the compounds in physiological saline into a normal dog which was anesthetized using sodium pentothal. Blood samples were withdrawn from each dog after 30, 60 and 120 minutes and tested. […] The F-VIII factor level was also determined by radioimmunoassay(RIA). The results of these tests are reported in Table I. Desmopressin (10 μg/kg) was used as a reference injection peptide.

F-VIII = settings: cited from earlier work
Factor VIII [2] = test: Factor VIII radioimmunoassay (F-VIII(RIA)) on blood of dogs after intravenous injection; type: in vivo; settings: dog, i.v.; for F-VIII 30' (RIA): 30 minutes; for F-VIII 60' (RIA): 60 minutes; for F-VIII 120' (RIA): 120 minutes
Method: as §1

anesthetized rats [3] = test: Antidiuretic effect by intravenous injection into anesthetized rats; type: in vivo, rat; settings: for Antidiuretic Potencies (peak): rats, mean
Method: (§2) The vasopressin analogs of this invention were tested for antidiuretic and pressor effects by intravenous injection into anesthetized rats using techniques described in Cort, J. H., Schuck, O., Stribrna, J. Skopkova, J., Jost. K., Mulder, J. L., Kidney Internat. 8:292,1975. The increase in Factor VIII after administration were analyzed in male canine citrated plasma. The Factor VIII were estimated by both the classical clotting assay (F-VIII(C)) and by radioimmunoassay (F-VIII(RIA)), both described in Prowse, C. V., Sas, G., Gader, A. M. A., Cort, J. H., Cash, J. D., Brit. H. Haematol. 41:437, 1979. The vasopressin analogs are suitable for administration to mammals by intravenous or subcutaneous injection containing 100 μg to 1 mg peptide/ml. The intravenous or subcutaneous doses would be in the range of 0.02 to 1.0 μg/kg. The intranasal dose range would be ten times the former dose.
(§3) The vasopressin analogs were injected intravenously into normal male dogs anesthetized with sodium pentothal. Blood was withdrawn from each dog after 30, 60 and 120 minutes and analyzed for F-VIII. Rats were also rested for antidiuretic and pressor activity due to the vasopressin analogs of this invention.

anesthetized rats [4] = test: Pressor effect by intravenous injection into anesthetized rats; type: in vivo, rat; settings: for Pressor Potencies (peak): rats, mean
Method: as §2, §3

[5] = 5 μg/kg, hemophiliac dog plasma = 0%

Compound	effect on blood levels of F-VIII and PA (F-VIII and PA)	F-VIII 30' (c) (Factor VIII [1]; 10 μg/kg) [%]	F-VIII 60' (c) (Factor VIII [1]; 10 μg/kg) [%]	F-VIII 120' (c) (Factor VIII [1]; 10 μg/kg) [%]	F-VIII 30' (RIA) (Factor VIII [2]; 10 μg/kg) [%]	F-VIII 60' (RIA) (Factor VIII [2]; 10 μg/kg) [%]	F-VIII 120' (RIA) (Factor VIII [2]; 10 μg/kg) [%]	Antidiuretic Potencies (peak) (anesthetized rats [3]) [IU/mg]	Pressor Potencies (peak) (anesthetized rats [4]) [IU/mg]	other results
1-desamino-6-monocarba-[8 -D-Arg]-vasopressin [dCDAVP]	highly potent and prolonged effects on F-VIII and PA release									
NC(=O)CC[C@@H]1NC(=O)[C@H](Cc2ccccc2)NC(=O)[C@H](Cc2ccc(O)cc2)NC(=O)CCSSC[C@@H](C(=O)N2CCC[C@H]2C(=O)N[C@H](CCCN=C(N)N)C(=O)NCC(N)=O)NC(=O)[C@H](CC(N)=O)NC1=O [Desmopressin, 1-desamino-[8-D-ARG]-vasopressin, reference compound]	highly potent and prolonged effects on F-VIII and PA release	220	250	210	126	134	164	1100	0.15	effect on low F-VIII levels in patients (F-VIII; hemophilia A and B, von Willebrand's disease, literature): increases low levels of F-VIII toward normal; antidiuretic side effect in clinical use (F-VIII; human, in vivo): undesired water retention by the patients; antidiuretic activity (anesthetized rats [3]): more than 1000 IU/mg; pressor activity (anesthetized rats [4]): less than 0.2 IU/mg
C[C@@H](NC(=O)[C@H](CCCNC(=N)N)NC(=O)[C@@H]1CCCN1C(=O)[C@@H]1CSSCCC(=O)N[C@@H](Cc2ccc(O)cc2)C(=O)N[C@@H](Cc2ccccc2)C(=O)N[C@@H](CCC(N)=O)C(=O)N[C@@H](CC(N)=O)C(=O)N1)C(N)=O [Example 4, 1-Desamino-[9-D-Ala-NH]-arginine-vasopressin] ([Mpa]YFQNCPR[dA]-NH2; disulfide 1-6)		230	250	240	124	132	163	1.8	0.15	F-VIII 30' (c) (Factor VIII [1]; [5]): 120%; F-VIII 60' (c) (Factor VIII [1]; 5 μg/kg): 160%; F-VIII 120' (c) (Factor VIII [1]; 5 μg/kg): 170%; F-VIII 30' (RIA) (Factor VIII [2]; 5 μg/kg): 115%; F-VIII 60' (RIA) (Factor VIII [2]; 5 μg/kg): 125%; F-VIII 120' (RIA) (Factor VIII [2]; 5 μg/kg): 130%
C[C@@H](NC(=O)[C@H](CCCNC(=N)N)NC(=O)[C@@H]1CCCN1C(=O)[C@@H]1CSSC[C@H](N)C(=O)N[C@@H](Cc2ccc(O)cc2)C(=O)N[C@@H](Cc2ccccc2)C(=O)N[C@@H](CCC(N)=O)C(=O)N[C@@H](CC(N)=O)C(=O)N1)C(N)=O [Example 5, ([9-D-Ala-NH2]-arginine-vasopressin]		225	128	115	115	110	115	1.2	0.10	F-VIII 30' (c) (Factor VIII [1]; [5]): 115%; F-VIII 60' (c) (Factor VIII [1]; 5 μg/kg): 120%; F-VIII 120' (c) (Factor VIII [1]; 5 μg/kg): 105%; F-VIII 30' (RIA) (Factor VIII [2]; 5 μg/kg): 110%; F-VIII 60' (RIA) (Factor VIII [2]; 5 μg/kg): 107%; F-VIII 120' (RIA) (Factor VIII [2]; 5 μg/kg): 98%
C[C@H](NC(=O)[C@@H](CCCNC(=N)N)NC(=O)[C@@H]1CCCN1C(=O)[C@@H]1CSSCCC(=O)N[C@@H](Cc2ccc(O)cc2)C(=O)N[C@@H](Cc2ccccc2)C(=O)N[C@@H](CCC(N)=O)C(=O)N[C@@H](CC(N)=O)C(=O)N1)C(N)=O [Example 8, (1-desamino-[8-D-Arg, 9-Ala-NH2]arginine)-vasopressin] ([Mpa]YFQNCP[dR]A-NH2; disulfide 1-6)		155	150	140	120	145	155	2.23	0.09	
CNCC(O)c1ccc(O)c(O)c1 (stereo not drawn) [adrenaline]	can increase the blood levels of both PA and F-VIII									
CC[C@H](C)[C@@H]1NC(=O)[C@H](Cc2ccc(O)cc2)NC(=O)[C@@H](N)CSSC[C@@H](C(=O)N2CCC[C@H]2C(=O)N[C@@H](CC(C)C)C(=O)NCC(N)=O)NC(=O)[C@H](CC(N)=O)NC(=O)[C@H](CCC(N)=O)NC1=O [oxytocin]	no effect on increasing F-VIII and PA in blood									
NC(=O)CC[C@@H]1NC(=O)[C@H](Cc2ccccc2)NC(=O)[C@H](Cc2ccc(O)cc2)NC(=O)[C@@H](N)CSSC[C@@H](C(=O)N2CCC[C@H]2C(=O)N[C@@H](CCCN=C(N)N)C(=O)NCC(N)=O)NC(=O)[C@H](CC(N)=O)NC1=O [vasopressin]	can increase the blood levels of both PA and F-VIII									
(1-desamino-6-monocarba[9-D-Ala-NH2 ]-arginine)-vasopressin [Example 7]		240	255	266	125	165	180	1.9	0.18	F-VIII 30' (c) (Factor VIII [1]; [5]): 145%; F-VIII 60' (c) (Factor VIII [1]; 5 μg/kg): 190%; F-VIII 120' (c) (Factor VIII [1]; 5 μg/kg): 210%; F-VIII 30' (RIA) (Factor VIII [2]; 5 μg/kg): 140%; F-VIII 60' (RIA) (Factor VIII [2]; 5 μg/kg): 150%; F-VIII 120' (RIA) (Factor VIII [2]; 5 μg/kg): 155%
angiotensin II (DRVYIHPF; Angiotensin-2; UniProt P01019 25-32, looked up) [other pressor substance]	no effect on increasing F-VIII and PA in blood									
arginine-vasotocin	far less active									

— patent publication US4285858A, “Vasopressin analogs” (Mt. Sinai School of Medicine of the City University of N.Y., priority 1979, dated 1981)
